The source made the active and inactive calls. No cut-off for these calls is given here.
Assays:
[1] = test system: Rattus norvegicus; test: Acute toxicity in Charles Foster albino rat assessed as sleep up to 100 mg/kg, po after 48 hrs; type: organism-based; parameters: dose 100 mg/kg, route oral; conditions: in vivo
[2] = test system: Rattus norvegicus; test: Antiamnesic activity in Charles Foster albino rat assessed as reduction in scopolamine-induced increase in transfer latency at 5 mg/kg, po administered for 7 days measured 1 hr post last dose by elevated plus maze task (reference value: 67.67 +/- 0.88 s); type: functional
[3] = test system: Rattus norvegicus; test: In vivo inhibition of AChE-mediated substrate hydrolysis in Charles Foster albino rat hippocampus at 5 to 10 mg/kg, po administered for 8 days measured 1 hr post last dose; type: functional, organism-based; parameters: dose 5 to 10 mg/kg, route oral
[4] = test system: Rattus norvegicus; test: Antiamnesic activity in Charles Foster albino rat assessed as reduction in scopolamine-induced increase in transfer latency at 10 mg/kg, po administered for 7 days measured 1 hr post last dose by elevated plus maze task (reference value: 67.67 +/- 0.88 s); type: functional
[5] = test system: Rattus norvegicus; test: Acute toxicity in Charles Foster albino rat assessed as diarrhoea up to 100 mg/kg, po after 48 hrs; type: organism-based; parameters: dose 100 mg/kg, route oral; conditions: in vivo
[6] = test system: Rattus norvegicus; test: Acute toxicity in Charles Foster albino rat assessed as lacrimation up to 100 mg/kg, po after 48 hrs; type: organism-based; parameters: dose 100 mg/kg, route oral; conditions: in vivo
[7] = test system: Rattus norvegicus; test: Acute toxicity in Charles Foster albino rat assessed as convulsions up to 100 mg/kg, po after 48 hrs; type: organism-based; parameters: dose 100 mg/kg, route oral; conditions: in vivo
[8] = test system: Rattus norvegicus; test: Acute toxicity in Charles Foster albino rat assessed as blood pressure up to 100 mg/kg, po after 48 hrs; type: organism-based; parameters: dose 100 mg/kg, route oral; conditions: in vivo
[9] = test system: Rattus norvegicus; test: Antiamnesic activity in Charles Foster albino rat assessed as reduction in scopolamine-induced increase in transfer latency at 10 mg/kg, po administered for 8 days measured 1 hr post last dose by elevated plus maze task (reference value: 62.50 +/- 0.76 s); type: functional
[10] = test system: Rattus norvegicus; test: Acute toxicity in Charles Foster albino rat assessed as pulse rate up to 100 mg/kg, po after 48 hrs; type: organism-based; parameters: dose 100 mg/kg, route oral; conditions: in vivo
[11] = test system: Rattus norvegicus; test: Acute toxicity in Charles Foster albino rat assessed as heart rate up to 100 mg/kg, po after 48 hrs; type: organism-based; parameters: dose 100 mg/kg, route oral; conditions: in vivo
[12] = target: T1, Acetylcholinesterase (Electrophorus electricus, UniProt O42275); test: Inhibition of electric eel AChE using […] as substrate incubated for 20 mins prior to substrate addition by Ellman method
T1 sequence (O42275 whole entry): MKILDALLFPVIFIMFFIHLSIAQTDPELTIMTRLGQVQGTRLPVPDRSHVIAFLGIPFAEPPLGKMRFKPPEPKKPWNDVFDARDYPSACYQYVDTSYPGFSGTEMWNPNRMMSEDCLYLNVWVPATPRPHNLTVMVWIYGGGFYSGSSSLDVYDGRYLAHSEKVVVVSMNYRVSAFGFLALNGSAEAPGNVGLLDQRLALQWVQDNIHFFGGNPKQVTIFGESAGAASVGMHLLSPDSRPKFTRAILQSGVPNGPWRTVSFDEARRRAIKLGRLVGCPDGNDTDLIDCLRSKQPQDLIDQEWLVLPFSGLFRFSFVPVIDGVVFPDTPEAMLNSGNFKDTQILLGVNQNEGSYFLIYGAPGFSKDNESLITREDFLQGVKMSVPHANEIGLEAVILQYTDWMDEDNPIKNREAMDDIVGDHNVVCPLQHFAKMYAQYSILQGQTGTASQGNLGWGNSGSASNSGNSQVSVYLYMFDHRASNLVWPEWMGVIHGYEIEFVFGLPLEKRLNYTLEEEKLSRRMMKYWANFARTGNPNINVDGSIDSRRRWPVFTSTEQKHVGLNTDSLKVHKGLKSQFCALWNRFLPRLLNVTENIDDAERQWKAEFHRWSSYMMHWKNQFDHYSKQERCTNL

[13] = test system: Rattus norvegicus; test: In vivo inhibition of AChE-mediated substrate hydrolysis in Charles Foster albino rat hypothalamus at 5 to 10 mg/kg, po administered for 8 days measured 1 hr post last dose; type: functional, organism-based; parameters: dose 5 to 10 mg/kg, route oral
[14] = test system: Rattus norvegicus; test: Acute toxicity in Charles Foster albino rat assessed as tremors up to 100 mg/kg, po after 48 hrs; type: organism-based; parameters: dose 100 mg/kg, route oral; conditions: in vivo
[15] = test system: Rattus norvegicus; test: Antiamnesic activity in po dosed Charles Foster albino rat assessed as reduction in scopolamine-induced increase in transfer latency after 7 to 8 days by elevated plus maze task; type: functional, organism-based
[16] = test system: Rattus norvegicus; test: Antiamnesic activity in Charles Foster albino rat assessed as reduction in scopolamine-induced increase in transfer latency at 5 mg/kg, po administered for 8 days measured 1 hr post last dose by elevated plus maze task (reference value: 62.50 +/- 0.76 s); type: functional
[17] = test system: Rattus norvegicus; test: Acute toxicity in Charles Foster albino rat assessed as feeding behaviour up to 100 mg/kg, po after 48 hrs; type: organism-based; parameters: dose 100 mg/kg, route oral; conditions: in vivo
[18] = test system: Rattus norvegicus; test: Acute toxicity in Charles Foster albino rat assessed as mortality up to 100 mg/kg, po after 48 hrs; type: organism-based; parameters: dose 100 mg/kg, route oral; conditions: in vivo
[19] = target: T2, Cholinesterase (Homo sapiens, UniProt P06276); test: Inhibition of human serum BChE using butyrylthiolcholine iodide as substrate incubated for 20 mins prior to substrate addition by Ellman's method
T2 sequence (P06276 whole entry): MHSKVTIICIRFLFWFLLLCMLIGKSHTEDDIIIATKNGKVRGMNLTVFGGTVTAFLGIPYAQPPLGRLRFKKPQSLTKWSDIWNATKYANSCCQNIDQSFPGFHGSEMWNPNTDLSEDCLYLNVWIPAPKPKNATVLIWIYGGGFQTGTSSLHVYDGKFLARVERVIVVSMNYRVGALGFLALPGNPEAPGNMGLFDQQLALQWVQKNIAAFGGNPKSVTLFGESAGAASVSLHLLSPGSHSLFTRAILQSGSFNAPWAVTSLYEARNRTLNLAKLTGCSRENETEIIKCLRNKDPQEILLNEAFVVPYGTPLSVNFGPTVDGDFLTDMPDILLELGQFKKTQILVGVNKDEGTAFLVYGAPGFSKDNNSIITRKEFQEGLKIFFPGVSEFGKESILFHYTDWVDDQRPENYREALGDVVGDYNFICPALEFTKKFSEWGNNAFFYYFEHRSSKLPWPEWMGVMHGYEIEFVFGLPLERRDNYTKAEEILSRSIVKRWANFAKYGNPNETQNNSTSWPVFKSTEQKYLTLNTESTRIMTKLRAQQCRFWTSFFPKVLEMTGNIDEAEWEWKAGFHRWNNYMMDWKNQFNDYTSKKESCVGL

[20] = Selectivity ratio of IC50 for human serum BChE to IC50 for electric eel AChE
[21] = test system: Rattus norvegicus; test: In vivo inhibition of AChE-mediated substrate hydrolysis in Charles Foster albino rat prefrontal cortex at 5 to 10 mg/kg, po administered for 8 days measured 1 hr post last dose; type: functional, organism-based
[22] = test system: Rattus norvegicus; test: Acute toxicity in Charles Foster albino rat assessed as salivation up to 100 mg/kg, po after 48 hrs; type: organism-based; parameters: dose 100 mg/kg, route oral; conditions: in vivo
[23] = target: T2, Cholinesterase; test: Competitive inhibition of human serum BChE using butyrylthiolcholine iodide as substrate by Lineweaver-Burk plot analysis
[24] = target: T1, Acetylcholinesterase; test: Non-competitive inhibition of electric eel AChE using […] as substrate by Lineweaver-Burk plot analysis

| Compound | Activity [1] | Time [2] | inhibition [3] | Time [4] | Activity [5] | Activity [6] | Activity [7] | Activity [8] | Time [9] | Activity [10] | Activity [11] | IC50 [12] | inhibition [13] | Activity [14] | Activity [15] | Time [16] | Activity [17] | Activity [18] | IC50 [19] | Ratio IC50 [20] | further results |
| --- | --- | --- | --- | --- | --- | --- | --- | --- | --- | --- | --- | --- | --- | --- | --- | --- | --- | --- | --- | --- | --- |
| O=C(O)/C=C\C(=O)Nc1ccncc1 | Non-toxic | 80.5 s | Active | 77.67 s | Non-toxic | Non-toxic | Non-toxic | Non-toxic | 72.5 s | Non-toxic | Non-toxic | 48.7 µM | Active | Non-toxic | Dose-dependent effect | 75.33 s | Non-toxic | Non-toxic | 657 µM | 13.5 | inhibition [21]: Active; Activity [22]: Non-toxic |
| O=C1C=CC(=O)N1c1ccncc1 | Non-toxic | 64.67 s | Active | 61.33 s | Non-toxic | Non-toxic | Non-toxic | Non-toxic | 53.83 s | Non-toxic | Non-toxic | 0.03 µM | Active | Non-toxic | Dose-dependent effect | 56.33 s | Non-toxic | Non-toxic | 11 µM | 367 | Ki [23]: 15.6 µM; Ki [24]: 0.042 µM; inhibition [21]: Active; Activity [22]: Non-toxic |
| O=C1CCC(=O)N1c1ccncc1 | Non-toxic | 66.83 s | Active | 65.5 s | Non-toxic | Non-toxic | Non-toxic | Non-toxic | 58.33 s | Non-toxic | Non-toxic | 0.49 µM | Active | Non-toxic | Dose-dependent effect | 60.67 s | Non-toxic | Non-toxic | 3.82 µM | 7.79 | inhibition [21]: Active; Activity [22]: Non-toxic |
| O=C(O)CCC(=O)Nc1ccncc1 | Non-toxic | 77.67 s | Active | 74.83 s | Non-toxic | Non-toxic | Non-toxic | Non-toxic | 70 s | Non-toxic | Non-toxic | 40.3 µM | Active | Non-toxic | Dose-dependent effect | 71.67 s | Non-toxic | Non-toxic | 56.5 µM | 1.39 | inhibition [21]: Active; Activity [22]: Non-toxic |

Source: ChEMBL document CHEMBL2384962, “Design, synthesis and evaluation of some new 4-aminopyridine derivatives in learning and memory” (Bioorg Med Chem Lett, 2013)
